Among the data in patent US10457637B2, “Benzenesulfonamide derivatives as inverse agonists of retinoid-related orphan receptor gamma (RORγ(T))” (GALDERMA RESEARCH & DEVELOPMENT, priority 2014, dated 2019) are IC50 values, retold here.

This experiment deals with ROR gamma ligand-binding domain (hRORg) (Homo sapiens (Human), UniProt P51449). Kind of experiment: GAL4-RORγ transactivation (luciferase reporter, HG5LN HeLa line). It counts as cell-based. Particulars: 18 hours incubation. From the text:
GAL4-RORγ Transactivation
The RORγ transactivation model was developed from the line HG5LN, which is a HeLa line that stably expresses a luciferase reporter gene controlled by a pentamer of the GAL4 recognition domain of yeast and of a β-globin promoter. The HG5LN line was stably transfected by the DNA-binding domain (DBD) of GAL4 fused to the ROR gamma ligand-binding domain (LBD). Molecules that inhibit the ROR gamma constitutive activity reduce the luciferase expression, thus leading to a reduction in the emitted luminescence.
The cells are seeded in 384-well plates (5000 cells in 45 μL/well of culture medium containing 10% fetal calf serum) and incubated for 4 hours at 37° C., 5% CO2. 5 μL of the test molecules (compounds described in the tables described above) are then added to each well and the plates are incubated for 18 hours at a temperature of 37° C. under 5% of CO2. 20 μL of luciferase substrate (Promega) are added to each well and the luminescence emitted is read by a microplate reader.
The luminescence units (“RLU”) are normalized by positive controls (“POS” containing a saturated concentration of benzenesulfonamide, N-(2,2,2-trifluoroethyl)-N-[4-[2,2,2-trifluoro-1-hydroxy-1-(trifluoromethyl)ethyl]phenyl]) and negative controls (“NEG” containing DMSO): % inhibition=((RLU−NEG)*100)/(POS−NEG). The IC50 values are calculated from a 4-parameter logistic model using the XLFit software (IDBS).
(In general: Reporter assays use an easily measured gene product as a stand-in for the process of interest.)

Chain of ROR gamma ligand-binding domain (hRORg) (P51449 269-508): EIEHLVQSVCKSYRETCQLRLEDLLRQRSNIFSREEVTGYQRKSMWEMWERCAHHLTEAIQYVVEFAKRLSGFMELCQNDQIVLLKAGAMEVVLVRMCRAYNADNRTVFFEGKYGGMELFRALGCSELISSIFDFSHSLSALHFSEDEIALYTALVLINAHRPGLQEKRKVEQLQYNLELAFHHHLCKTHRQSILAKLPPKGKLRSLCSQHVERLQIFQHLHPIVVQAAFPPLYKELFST

The term IC50 denotes the concentration that gives 50% inhibition. Low values mean greater potency, high ones weaker potency. With `CCc1ccc(N(CC(C)C)S(=O)(=O)c2ccc(NCC3(CC)COC3)c(S(C)(=N)=O)c2)cc1` (stereo not shown) [compound 126, 4-(((3-ethyloxetan-3-yl)methyl)amino)-N-(4-ethylphenyl)-N-isobutyl-3-(S-methylsulfonimidoyl)benzenesulfonamide], the IC50 is more than 1000 nM. Then `CCc1ccc(N(CC(C)C)S(=O)(=O)c2ccc(NCC3(N4CCCC4)COC3)c(S(C)(=N)=O)c2)cc1` (stereo not shown) [compound 132, N-(4-ethylphenyl)-N-isobutyl-3-(S-methylsulfonimidoyl)-4-(((3-(pyrrolidin-1-yl)oxetan-3-yl)methyl)amino)benzenesulfonamide], with more than 1000 nM; and `CCc1ccc(N(CC(C)C)S(=O)(=O)c2ccc(NCC3CC4(COC4)C3)c(S(C)(=N)=O)c2)cc1` (stereo not shown) [compound 95, 4-(((2-oxaspiro[3.3]heptan-6-yl)methyl)amino)-N-(4-ethylphenyl)-N-isobutyl-3-(S-methylsulfonimidoyl)benzenesulfonamide], with 100 to 1000 nM. To `CCc1ccc(N(CC(C)C)S(=O)(=O)c2ccc(NCC3CCN(C(=O)OC)CC3)c(S(C)(=N)=O)c2)cc1` (stereo not shown) [compound 93, methyl 4-(((4-(N-(4-ethylphenyl)-N-isobutylsulfamoyl)-2-(S-methylsulfonimidoyl)phenyl)amino)methyl)piperidine-1-carboxylate] belongs more than 1000 nM; to `CCc1ccc(N(CC(C)C)S(=O)(=O)c2ccc3c(c2)NC(=O)CS3)cc1` [compound 10, 3-oxo-3,4-dihydro-2H-benzo[1,4]thiazine-6-sulfonic acid (4-ethylphenyl)isobutylamide], more than 1000 nM. Then `CCc1ccc(N(CC(C)C)S(=O)(=O)c2ccc(N3CC4(CN(C(C)=O)C4)C3)c(S(C)(=N)=O)c2)cc1` (stereo not shown) [compound 122, 4-(6-acetyl-2,6-diazaspiro[3.3]heptan-2-yl)-N-(4-ethylphenyl)-N-isobutyl-3-(S-methylsulfonimidoyl)benzenesulfonamide], with more than 1000 nM. As for `CCc1ccc(N(CC(C)C)S(=O)(=O)c2ccc(OCC3(C)COC3)c(S(C)(=N)=O)c2)cc1` (stereo not shown) [compound 34, N-(4-ethylphenyl)-N-isobutyl-4-((3-methyloxetan-3-yl)methoxy)-3-(S-methylsulfonimidoyl)benzenesulfonamide], the IC50 is more than 1000 nM. To `CCc1ccc(N(CC(C)C)S(=O)(=O)c2ccc(OCC3CCN(C(=O)OC(C)(C)C)CC3)c(S(C)(=N)=O)c2)cc1` (stereo not shown) [compound 36, tert-butyl 4-((4-(N-(4-ethylphenyl)-N-isobutylsulfamoyl)-2-(S-methylsulfonimidoyl)phenoxy)methyl)piperidine-1-carboxylate] belongs more than 1000 nM; to `CCc1ccc(N(CC(C)C)S(=O)(=O)c2ccc(OCC3CCN(S(C)(=O)=O)CC3)c(S(C)(=N)=O)c2)cc1` (stereo not shown) [compound 51], more than 1000 nM. In turn, `CCc1ccc(N(CC(C)C)S(=O)(=O)c2ccc(OCc3ccnc(OC)c3)c(S(C)(=N)=O)c2)cc1` (stereo not shown) [compound 77, N-(4-ethylphenyl)-N-isobutyl-4-((2-methoxypyridin-4-yl)methoxy)-3-(S-methylsulfonimidoyl)benzenesulfonamide] yielded a concentration for half-maximal inhibition (IC50) of more than 1000 nM. Then `CCc1ccc(N(CC(C)C)S(=O)(=O)c2ccc(NCC3CNC(=O)O3)c(S(C)(=N)=O)c2)cc1` (stereo not shown) [compound 82, N-(4-ethylphenyl)-N-isobutyl-3-(S-methylsulfonimidoyl)-4-(((2-oxooxazolidin-5-yl)methyl)amino)benzenesulfonamide], with 100 to 1000 nM. To `CCc1ccc(N(CC(C)C)S(=O)(=O)c2ccc(NCC3CCN(C(C)=O)CC3)c(S(C)(=N)=O)c2)cc1` (stereo not shown) [compound 84, 4-(((1-acetylpiperidin-4-yl)methyl)amino)-N-(4-ethylphenyl)-N-isobutyl-3-(S-methylsulfonimidoyl)benzenesulfonamide] belongs more than 1000 nM. Then `CCc1ccc(N(CC(C)C)S(=O)(=O)c2ccc(NCC3CCN(C(=O)OC)C3)c(S(C)(=N)=O)c2)cc1` (stereo not shown) [compound 94, methyl 3-(((4-(N-(4-ethylphenyl)-N-isobutylsulfamoyl)-2-(S-methylsulfonimidoyl)phenyl)amino)methyl)pyrrolidine-1-carboxylate], with more than 1000 nM; and `CCc1ccc(N(CC(C)C)S(=O)(=O)c2ccc3c(c2)N(CC2CCOCC2)C(=O)C[S+]3[O-])cc1` (stereo not shown) [compound 4, 1,3-dioxo-4-(tetrahydropyran-4-ylmethyl)-1,2,3,4-tetrahydro-1λ^4-benzo[1,4]thiazine-6-sulfonic acid (4-ethylphenyl)isobutylamide], with more than 1000 nM; and `CCc1ccc(N(CC(C)C)S(=O)(=O)c2ccc3c(c2)[S+]([O-])CCN3CC2CCOCC2)cc1` (stereo not shown) [compound 71, 1-oxo-4-(tetrahydropyran-4-ylmethyl)-1,2,3,4-tetrahydro-1λ^4-benzo[1,4]thiazine-7-sulfonic acid (4-ethylphenyl)isobutylamide], with more than 1000 nM.

Compound `CCc1ccc(N(CC(C)C)S(=O)(=O)c2ccc(NCC3CN(C(=O)OC)C3)c(S(C)(=N)=O)c2)cc1` (stereo not shown) [compound 89, methyl 3-(((4-(N-(4-ethylphenyl)-N-isobutylsulfamoyl)-2-(S-methylsulfonimidoyl)phenyl)amino)methyl)azetidine-1-carboxylate] came in with a half-inhibitory concentration (IC50) of more than 1000 nM. To `CCc1ccc(N(CC(C)C)S(=O)(=O)c2ccc(OCCc3ccno3)c(S(C)(=N)=O)c2)cc1` (stereo not shown) [compound 38, N-(4-ethylphenyl)-N-isobutyl-4-(2-(isoxazol-5-yl)ethoxy)-3-(S-methylsulfonimidoyl)benzenesulfonamide] belongs more than 1000 nM; to `CCc1ccc(N(CC(C)C)S(=O)(=O)c2ccc(NCc3nonc3C)c(S(C)(=N)=O)c2)cc1` (stereo not shown) [compound 88, N-(4-ethylphenyl)-N-isobutyl-4-(((4-methyl-1,2,5-oxadiazol-3-yl)methyl)amino)-3-(S-methylsulfonimidoyl)benzenesulfonamide], more than 1000 nM. Then `CCc1ccc(N(CC(C)C)S(=O)(=O)c2ccc3c(c2)SC(C)(C)N3CC2CCOCC2)cc1` [compound 73, 2,2-dimethyl-3-(tetrahydropyran-4-ylmethyl)-2,3-dihydrobenzothiazole-6-sulfonic acid (4-ethylphenyl)isobutylamide], with more than 1000 nM; and `CCc1ccc(N(CC(C)C)S(=O)(=O)c2ccc(NCC3CCS(=O)(=O)CC3)c(S(C)(=N)=O)c2)cc1` (stereo not shown) [compound 57, 4-(((1,1-dioxidotetrahydro-2H-thiopyran-4-yl)methyl)amino)-N-(4-ethylphenyl)-N-isobutyl-3-(S-methylsulfonimidoyl)benzenesulfonamide], with more than 1000 nM; and `CCc1ccc(N(CC(C)C)S(=O)(=O)c2ccc(N3CCCC4(COC4)C3)c(S(C)(=N)=O)c2)cc1` (stereo not shown) [compound 109, N-(4-ethylphenyl)-N-isobutyl-3-(S-methylsulfonimidoyl)-4-(2-oxa-6-azaspiro[3.5]nonan-6-yl)benzenesulfonamide], with more than 1000 nM. To `CCc1ccc(N(CC(C)C)S(=O)(=O)c2ccc3c(c2)N(CC2CCOCC2)CCS3)cc1` [compound 6, 4-(tetrahydropyran-4-ylmethyl)-3,4-dihydro-2H-benzo[1,4]thiazine-6-sulfonic acid (4-ethylphenyl)isobutylamide] belongs more than 1000 nM. The compound `CCc1ccc(N(CC(C)C)S(=O)(=O)c2ccc(N3CCNCC3)c(S(C)(=N)=O)c2)cc1` (stereo not shown) [compound 140, N-(4-ethylphenyl)-N-isobutyl-3-(S-methylsulfonimidoyl)-4-(piperazin-1-yl)benzenesulfonamide] had an IC50 of more than 1000 nM. To `CCc1ccc(N(CC(C)C)S(=O)(=O)c2ccc(NCC3CCNC(=O)C3)c(S(C)(=N)=O)c2)cc1` (stereo not shown) [compound 96, 4-N-(4-ethylphenyl)-N-isobutyl-3-(S-methylsulfonimidoyl)-4-(((2-oxopiperidin-4-yl)methyl)amino)benzenesulfonamide] belongs more than 1000 nM. Then `CCc1ccc(N(CC(C)C)S(=O)(=O)c2ccc(OCc3ccncc3)c(S(C)(=N)=O)c2)cc1` (stereo not shown) [compound 39, N-(4-ethylphenyl)-N-isobutyl-3-(S-methylsulfonimidoyl)-4-(pyridin-4-ylmethoxy)benzenesulfonamide], with more than 1000 nM; and `CCc1ccc(N(CC(C)C)S(=O)(=O)c2ccc(NCC3COC3)c(S(C)(=N)=O)c2)cc1` (stereo not shown) [compound 54, N-(4-ethylphenyl)-N-isobutyl-3-(S-methylsulfonimidoyl)-4-((oxetan-3-ylmethyl)amino)benzenesulfonamide], with 100 to 1000 nM. As for `CCc1ccc(N(CC(C)C)S(=O)(=O)c2ccc(NC[C@H]3CNC(=O)O3)c(S(C)(=N)=O)c2)cc1` (stereo partly drawn) [compound 106, N-(4-ethylphenyl)-N-isobutyl-3-(S-methylsulfonimidoyl)-4-((((S)-2-oxooxazolidin-5-yl)methyl)amino)benzenesulfonamide], the IC50 is more than 1000 nM. Then `CCc1ccc(N(CC(C)C)S(=O)(=O)c2ccc(NC3CCS(=O)(=O)CC3)c(S(C)(=N)=O)c2)cc1` (stereo not shown) [compound 83, 4-((1,1-dioxidotetrahydro-2H-thiopyran-4-yl)amino)-N-(4-ethylphenyl)-N-isobutyl-3-(S-methylsulfonimidoyl)benzenesulfonamide], with more than 1000 nM.
